Laboratory results taken from patent US10030064B2, “Mammalian cell culture processes for protein production” (priority 2009, dated 2018).

Experiments:
Assay type in all cases: cell-based, Chinese hamster
[1] = tested on: CHO DG44 cell line expressing the fusion glycoprotein; assay: Shake flask CHO culture: total sialic acid content, N-linked and O-linked oligosaccharide profile of the secreted fusion glycoprotein
Method: The CHO cell line used in this study was originally subcloned from DG44 parental cells and cultured in a proprietary protein-free growth medium.
(§1) The experiments were carried out in 250-mL shake flasks (VWR international) with starting volumes of 100 mL and initial cell densities of 6×10^5 cells/mL. The cultures were placed on a shaker platform (VWR international) at 150 rpm and maintained at 37° C. and 6% CO2 for ten days. The cultures were sampled daily and the pH was adjusted as needed using 1M sodium carbonate and fed with glucose and glutamine every two days in order to maintain them at adequate levels. Cell density and viability were measured offline using a Cedex automated cell counter (Innovatis AG, Bielefeld, Germany). Culture pH and concentrations for glucose and glutamine were measured off-line using a Bioprofile Analyzer 400 (Nova Biomedical Corporation, Waltham, Mass.).
The sialic acid to recombinant protein molar ratio was calculated by determining the sialic acid and recombinant protein concentrations. Sialic acid (SA), including N-Acetylneuraminic (Neu5Ac) and N-glycolylneuraminic acid (Neu5Gc), was released by partial acid hydrolysis. The derivatives were then separated by reversed-phase HPLC to determine sialic acid content. The protein concentrations were determined by UV absorbance at 280 nm. Sialic acid content is reported as molar ratios, which is the total moles of Neu5Ac and Neu5Gc per mole of recombinant glycoprotein. Sialic acid contents are reported as normalized values, which are the actual values divided by an arbitrary value. The same divisor was used to normalize all sialic acid content data in the studies reported here.
High-pH anion-exchange chromatography with pulsed amperometric detection (HPAEC-PAD) was used for the profiling of N-linked oligosaccharides (Base and Spellman 1990; Townsend and Hardy 1991) to provide information on site-specific N-linked glycosylation. N-linked oligosaccharides were cleaved from protein and separated on HPAEC-PAD into four domains based on the amount of sialic acid present. Domain I represents the asialo species. Domains II, III, and IV are sialylated species and represent monosialylated, disialylated, and tri- and tetrasialylated species, respectively. N-linked sialylated species fraction is reported as the percentage of N-linked sialylated species within the total N-linked oligosaccharides species, which includes both asialo and sialylated species. N-linked sialylated species fractions are reported as normalized values, which are the actual values divided by an arbitrary value. The same divisor was used to normalize all N-linked sialylated species fraction data in the studies reported here.
O-linked glycosylation was characterized by intact mass analysis of a reference standard and Protein-A purified samples of the fusion protein (Reference). Samples were diluted in 100 mM Tris, 25 mM NaCl, pH 7.6 and incubated with PNGase F overnight to enzymatically remove all N-linked oligosaccharides. Samples were then injected for intact mass analysis after mixing with an internal standard of insulin. O-linked sialic acid content is reported as molar ratios, which is the moles of O-linked sialic acid per mole of recombinant glycoprotein.
This study was performed in duplicate 250-mL shake flasks using the culture conditions as described above. […] Cultures were harvested on day 10, and the fusion protein was purified using a protein A column and analyzed for total sialic acid content, O-linked sialic acid content and the N-linked profile.

CHO cells [2] = assay: Shake flask CHO culture: cell viability profile (Example 1); conditions: 1 μM DEX from day 2
Method: as §1

CHO cells [3] = assay: Shake flask CHO culture in serum free medium: viable cell density, viability, growth rate, productivity (Example 3)
Method: The CHO cell line used in this study was subcloned from DG44 parental cells and cultured in a proprietary chemically-defined growth medium.
as §1, with “adjustment” for “was adjusted as needed”, “carbonate,” for “carbonate”, “certain” for “adequate”, “measured” for “measured offline using a Cedex automated cell counter (Innovatis AG, Bielefeld, Germany). Culture pH and concentrations for glucose and glutamine were measured”, “off-line” for “off-line using”
The eluted protein was quantified using a 10-level standard curve.

[4] = tested on: CHO cell line with CTLA4Ig secretion; assay: Shake flask culture of CHO cell line secreting CTLA4Ig: VCD and viability (Example 4)
Method: The CHO cell line used in this study was originally subcloned from DG44 parental cells and cultured in a proprietary chemical-defined growth medium.
as §1, with “levels. […]” for “levels.”, “Mass.). Supernatants from culture harvests were collected for analysis of sialic acid content and HMW level.” for “Mass.).”
Cell viability for the untreated cultures decreased rapidly after Day 6 (FIG. 16B) and percent viability on day 10 was only 64.5%.

[5] = 0.1 μM DEX, with 1 μM RU-486 added 24 hours before DEX
[6] = DEX 0.01 μM added day 2, harvest day 10
[7] = DEX 0.1 μM added day 2, harvest day 10
[8] = DEX 1.0 μM added day 2, harvest day 10
[9] = DEX 10 μM added day 2, harvest day 10
[10] = 10 μM DEX added two days after inoculation
[11] = treatment concentration 0.1 μM, added two days after inoculation
[12] = treatment concentration 1 μM, added two days after inoculation
[13] = treatment concentration 10 μM, added two days after inoculation

## C[C@@H]1C[C@H]2[C@@H]3CCC4=CC(=O)C=C[C@]4(C)[C@@]3(F)[C@@H](O)C[C@]2(C)[C@@]1(O)C(=O)CO [DEX, dexamethasone]
[1]; [5]
  normalized N-linked sialylated species fraction: 81.5±0.8
  normalized total sialic acid content: 12.7±0.1
[1]; 0.1 μM DEX, without RU-486
  normalized N-linked sialylated species fraction: 92.2±2.0
[1]; [6]
  Percent increase of N-link asialo-: −8.6%
  Percent increase of N-link-Di-: 13.9%
  Percent increase of N-link-Mono-: 6.6%
  Percent increase of N-link-Tri and tetra-: 4.5%
  Percent increase of O-link SA: 0.0%
[1]; DEX 0.01 μM added day 2, harvest day 10, vs control
  Percent increase of SA: 9.3%
[1]; [7]
  Percent increase of N-link asialo-: −9.6%
  Percent increase of N-link-Di-: 13.9%
  Percent increase of N-link-Mono-: 7.3%
  Percent increase of N-link-Tri and tetra-: 13.6%
  Percent increase of O-link SA: 0.5%
[1]; DEX 0.1 μM added day 2, harvest day 10, vs control
  Percent increase of SA: 13.0%
[1]; [8]
  Percent increase of N-link asialo-: −10.0%
  Percent increase of N-link-Di-: 19.4%
  Percent increase of N-link-Mono-: 4.3%
  Percent increase of O-link SA: 0.9%
[1]; DEX 1.0 μM added day 2, harvest day 10, vs control
  Percent increase of SA: 13.0%
[1]; [9]
  Percent increase of N-link asialo-: −15.6%
  Percent increase of N-link-Di-: 24.3%
  Percent increase of N-link-Mono-: 7.3%
  Percent increase of N-link-Tri and tetra-: 20.5%
  Percent increase of O-link SA: 0.0%
[1]; DEX 10 μM added day 2, harvest day 10, vs control
  Percent increase of SA: 20.4%
CHO cells [2]; day 4
  Cell viability: 98.0±0.1%
CHO cells [2]; day 10
  Cell viability: 85.0±2.7%
CHO cells [3]; 0.01 μM DEX added two days after inoculation
  final cell viability (day 10): 53.1%
CHO cells [3]; 0.1 μM DEX, with 1 μM RU-486
  percent increase of cell viability induced by DEX: 4.7%
CHO cells [3]; 0.1 μM DEX, without RU-486
  percent increase of cell viability induced by DEX: 30.5%
CHO cells [3]; 1 μM DEX added day 2
  maximum specific productivity (normalized): 7.0±0.6 ×10^−9
CHO cells [3]; 1 μM DEX added day 2, same for all cultures
  normalized volumetric productivity: 6.5
CHO cells [3]; 1 μM DEX added day 2, the day after DEX addition
  reduction in cell growth rates compared to control: ~30%
CHO cells [3]; 1 μM DEX added on day 0
  viability on day 10: 63%
CHO cells [3]; 1 μM DEX added on day 2
  viability on day 10: 68%
CHO cells [3]; 1 μM DEX added on day 4
  viability on day 10: 72%
CHO cells [3]; 1 μM DEX added on day 6
  viability on day 10: 74%
CHO cells [3]; 1 μM DEX, with 1 μM RU-486
  percent increase of cell viability induced by DEX: 5.7%
CHO cells [3]; 1 μM DEX, without RU-486
  percent increase of cell viability induced by DEX: 32.6%
CHO cells [3]; [10]
  Peak VCD: 6.5 ×10^6 cell/mL
  final cell viability (day 10): 64.0%
CHO cells [3]; [11]
  Final VCD: 7.64 ×10^6 cells/mL
  Peak VCD: 7.99 ×10^6 cells/mL
  Viability (final, day 10): 72.3%
CHO cells [3]; [12]
  Final VCD: 8.40 ×10^6 cells/mL
  Peak VCD: 9.02 ×10^6 cells/mL
  Viability (final, day 10): 75.8%
CHO cells [3]; [13]
  Final VCD: 7.38 ×10^6 cells/mL
  Peak VCD: 7.49 ×10^6 cells/mL
  Viability (final, day 10): 82.3%
[4]; 0.001 μM DEX added day 2
  final cell viability (day 10): 75.5%
[4]; 10 μM DEX added day 2
  final cell viability (day 10): 82.3%
